Measurements published in article PMC10382406, “Head-to-head comparison of different classes of FAP radioligands designed to increase tumor residence time: monomer, dimer, albumin binders, and small molecules vs peptides” (European Journal of Nuclear Medicine and Molecular Imaging, 2023).

biological target: T1, hFAP (Homo sapiens, UniProt Q12884); assay: In vitro inhibition assay on hFAP (substrate Z-Gly-Pro-AMC); type: biochemical; settings: isolated hFAP 200 pM, Z-Gly-Pro-AMC 20 μM, room temperature
T1 sequence (Q12884 1-760): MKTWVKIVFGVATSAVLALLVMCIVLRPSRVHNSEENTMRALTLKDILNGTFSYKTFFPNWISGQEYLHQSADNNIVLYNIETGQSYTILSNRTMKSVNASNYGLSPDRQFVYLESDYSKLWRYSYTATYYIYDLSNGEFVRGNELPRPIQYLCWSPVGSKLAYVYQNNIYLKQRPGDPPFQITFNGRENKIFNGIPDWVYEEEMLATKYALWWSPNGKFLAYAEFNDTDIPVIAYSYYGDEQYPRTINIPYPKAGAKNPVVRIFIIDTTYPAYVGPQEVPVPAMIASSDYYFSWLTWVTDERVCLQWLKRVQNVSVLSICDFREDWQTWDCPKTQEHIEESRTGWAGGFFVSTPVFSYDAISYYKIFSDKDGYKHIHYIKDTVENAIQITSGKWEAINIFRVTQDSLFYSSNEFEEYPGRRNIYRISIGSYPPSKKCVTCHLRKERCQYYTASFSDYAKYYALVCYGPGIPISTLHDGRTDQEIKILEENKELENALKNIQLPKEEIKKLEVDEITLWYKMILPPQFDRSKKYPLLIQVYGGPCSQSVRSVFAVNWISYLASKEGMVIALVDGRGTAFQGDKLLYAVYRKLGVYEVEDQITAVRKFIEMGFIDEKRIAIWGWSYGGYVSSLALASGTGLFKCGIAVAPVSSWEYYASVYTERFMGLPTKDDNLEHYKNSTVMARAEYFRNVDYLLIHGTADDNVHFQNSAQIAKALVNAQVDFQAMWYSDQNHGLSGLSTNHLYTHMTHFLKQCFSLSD
Protocol: The IC50 of all the ligands against isolated hFAP protein was assessed by an inhibition assay following published protocols (Supplementary Information and Supplementary Fig. 3).
In vitro inhibition assay on hFAP
The enzymatic activity of hFAP on the substrate Z-Gly-Pro-AMC was measured at room temperature on a microtiter plate reader, monitoring the fluorescence at an excitation wavelength of 360 nm and an emission wavelength of 465 nm. The assay was performed by mixing the substrate (20 μM), hFAP (200 pM, constant), and the ligands in assay buffer (50 mM Tris, 1 M NaCl, 1 mg/mL BSA, pH=7.5), with serial dilution of the inhibitors ranging from 250 nM to 2 fM, 1:2 in a total volume of 20 μL.
Experiments were performed in triplicate, and the mean fluorescence values were fitted using GraphPad Prism 9 (equation used: Y = Bottom + (Top − Bottom)/(1 +
((X^HillSlope)/(IC50^HillSlope)))). The IC50 value is defined as the concentration of ligand (inhibitor) required to reduce the enzyme activity by 50% after the addition of the substrate.
The results are presented in the Supplemental Figure 3.
(1 picture or pasted object on this page, not shown here)

Compound | IC50 [nM]
CN(CCCN1CCN(C(=O)CC(NC(=O)CN2CCN(CC(=O)O)CCN(CC(=O)O)CCN(CC(=O)O)CC2)C(=O)N2CCN(CCCN(C)c3ccc4nccc(C(=O)NCC(=O)N5CC(F)(F)C[C@H]5C#N)c4c3)CC2)CC1)c1ccc2nccc(C(=O)NCC(=O)N3CC(F)(F)C[C@H]3C#N)c2c1 (stereo partly shown) [FAPI-46-F1D] | 0.158 ± 0.0145
CC(C)Cc1ccc(C(C)C(=O)NCC(NC(=O)CN2CCN(CC(=O)O)CCN(CC(=O)O)CCN(CC(=O)O)CC2)C(=O)N2CCN(CCCN(C)c3ccc4nccc(C(=O)NCC(=O)N5CC(F)(F)C[C@H]5C#N)c4c3)CC2)cc1 (stereo partly shown) [FAPI-46-Ibu] | 0.0394 ± 0.0161
Cc1cc(-c2ccc(NC(=O)CC(NC(=O)CN3CCN(CC(=O)O)CCN(CC(=O)O)CCN(CC(=O)O)CC3)C(=O)N3CCN(CCCN(C)c4ccc5nccc(C(=O)NCC(=O)N6CC(F)(F)CC6C#N)c5c4)CC3)c(C)c2)ccc1N=Nc1ccc2c(S(=O)(=O)O)cc(S(=O)(=O)O)c(N)c2c1O (stereo not shown) [FAPI-46-EB] | 0.634 ± 0.102
CN(CCCN1CCN(C(=O)CN2CCN(CC(=O)O)CCN(CC(=O)O)CCN(CC(=O)O)CC2)CC1)c1ccc2nccc(C(=O)NCC(=O)N3CC(F)(F)C[C@H]3C#N)c2c1 [FAPI-46, reference compound] | 0.247 ± 0.017
